Results taken from ChEMBL document CHEMBL3987221, “The Australian National University Dept Of Immunology Pathogen Box Compounds Screened” (2018).
Activity calls are given as the source filed them. No rule for the calls is given here.

Legend:
[1] = target: T1, Ferrochelatase, mitochondrial (Homo sapiens) (UniProt P22830); settings: at 10 µM
T1 sequence (whole entry): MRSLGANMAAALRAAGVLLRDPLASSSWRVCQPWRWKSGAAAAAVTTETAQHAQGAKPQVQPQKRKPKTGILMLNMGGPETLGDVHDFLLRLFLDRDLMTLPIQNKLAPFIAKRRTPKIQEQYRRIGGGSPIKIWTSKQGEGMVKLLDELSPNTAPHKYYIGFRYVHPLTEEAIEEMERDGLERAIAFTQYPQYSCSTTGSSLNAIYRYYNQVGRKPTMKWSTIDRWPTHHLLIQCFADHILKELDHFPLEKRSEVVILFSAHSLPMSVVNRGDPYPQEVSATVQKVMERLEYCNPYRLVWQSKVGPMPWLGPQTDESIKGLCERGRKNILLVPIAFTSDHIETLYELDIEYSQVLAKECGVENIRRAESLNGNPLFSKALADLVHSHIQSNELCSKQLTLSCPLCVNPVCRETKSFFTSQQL
Description: Compound was evaluated for the inhibition of human FECH at 10uM

[2] = target: T2, Porphobilinogen deaminase (Homo sapiens) (UniProt P08397); settings: at 100 µM
T2 sequence (whole entry): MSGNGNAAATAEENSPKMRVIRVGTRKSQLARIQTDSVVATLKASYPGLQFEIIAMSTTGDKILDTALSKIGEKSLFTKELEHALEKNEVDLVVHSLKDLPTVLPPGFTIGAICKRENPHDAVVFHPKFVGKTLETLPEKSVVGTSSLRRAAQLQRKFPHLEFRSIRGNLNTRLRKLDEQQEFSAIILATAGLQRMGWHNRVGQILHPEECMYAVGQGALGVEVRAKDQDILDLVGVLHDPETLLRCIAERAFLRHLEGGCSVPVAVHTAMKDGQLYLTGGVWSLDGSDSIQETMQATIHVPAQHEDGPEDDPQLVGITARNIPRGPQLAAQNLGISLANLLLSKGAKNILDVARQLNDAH
Description: Compound was evaluated for the inhibition of human HMBS at 100uM

| SMILES | inhibition [1] | inhibition [2] |
| --- | --- | --- |
| COc1cccc(-c2cc3c(Nc4cccnc4)nccc3[nH]2)c1 | inactive | inactive |
| c1cncc(NCc2ccc(-c3cc4ccncc4cc3OC3CCNCC3)s2)c1 | inactive | inactive |
| NCC(=O)N1CCn2c(nc(-c3ccccc3)c2Nc2ccc3c(c2)OCO3)C1 | inactive | inactive |
| CC(C)(C)CN1C(=O)C(c2ccccc2)(c2ccccc2)N=C1N | inactive | inactive |
| CC(C(=O)Nc1ccc2oc(-c3ccncc3)nc2c1)c1ccccc1 (stereo not drawn) | inactive | inactive |
| c1ccc2c(c1)CN(CC1CC1)CC1(CCN(Cc3c[nH]c4cnccc34)CC1)O2 | inactive | inactive |
| COc1ccc(Cl)cc1NC(=O)CN(C)C(=O)c1cnn(-c2ccccc2)n1 | inactive | inactive |
| CCc1nc2ccccc2n1CC(O)COc1cc(C)ccc1Cl (stereo not drawn) | inactive | inactive |
| Cc1ccc(NC(=O)c2nc[nH]c2C(=O)Nc2nc3ccccc3[nH]2)c(C)c1 | inactive | inactive |
| COc1cccc(-c2nc3c(N4CCCC4)cccc3n2CC2CCCN2)n1 (stereo not drawn) | inactive | inactive |
| CC(C)(C)c1cc(C(=O)Nc2cccnc2)cc(C(=O)Nc2cccnc2)c1 | inactive | inactive |
| COc1ccc(-c2cnc3cnc(-c4cccc(OC(C)C)c4)cn23)cc1 | inactive | inactive |
| OCCc1ccc(Nc2nccc(-c3nnc4ccccn34)n2)cc1 | inactive | inactive |
| COc1ccc(N(CCc2cccc(C)n2)C(C)=O)cc1 | inactive | inactive |
| CC(=O)Oc1ccccc1C(=O)Nc1ncc([N+](=O)[O-])s1 | inactive | inactive |
| O=C1COCc2ccc(Br)cc2N1Cc1ccc(C(F)(F)F)cc1 | inactive | inactive |
| COc1cccn2c(C(=O)N3CCCCC3)c(C(F)(F)F)nc12 | inactive | inactive |
| Cc1noc(C)c1COc1cccc(C(=O)N=c2[nH]cccc2C)c1 | inactive | inactive |
| CNCCC(Oc1ccc(C(F)(F)F)cc1)c1ccccc1 (stereo not drawn) | inactive | inactive |
| Cc1cnc(N2CCN[C@@H](Cc3ccccc3)C2)nc1Oc1ccc(-n2ccnc2)cc1 | inactive | inactive |
| CC(C)(CN)c1nc(-c2ccc(Cl)c(O)c2)c(-c2ccnc(N)n2)[nH]1 | inactive | inactive |
| CS(=O)(=O)c1ccc(C(=O)N(CC2CCCO2)c2nc3ccccc3s2)cc1[N+](=O)[O-] (stereo not drawn) | inactive | inactive |

| SMILES | inhibition [1] | inhibition [2] |
| --- | --- | --- |
| O=C(Nc1ccc(C(F)(F)F)c(C(F)(F)F)c1)c1cc(Cl)ccc1O | inactive | inactive |
| CCCCS(=O)(=O)Nc1ccc2cnn(C)c2c1 | inactive | inactive |
| CCOC(=O)NC(=O)c1ccsc1NC(=O)c1nc2ccccc2s1 | inactive | inactive |
| O=C(c1cc2ccccc2o1)N1CCN(Cc2ccc3c(c2)OCO3)CC1 | inactive | inactive |
| CC1CCCCN1C(=O)NCCc1coc(-c2ccc(F)cc2)n1 (stereo not drawn) | inactive | inactive |
| CCN(CC)CCCN1CCN(C(=O)c2cccc(-c3noc(C(F)(F)F)n3)c2)CC1 | inactive | inactive |
| CCCCc1ccc(C(=O)Nc2nccc3ccccc23)nc1 | inactive | inactive |
| O=C(NCc1cc(Cl)cc(Cl)c1)c1c(C(F)(F)F)nc2ccccn12 | inactive | inactive |
| O=C(CCC1CCCCC1)Nc1cccc(-c2nnc(-c3ccco3)o2)c1 | inactive | inactive |
| O=C(c1ccc(NCCO)cc1)C1C[C@H]1c1ccc(Cl)cc1 (stereo partly drawn) | inactive | inactive |
| C[C@]1(O)C[C@@H](c2nc(-c3ccc4ccc(-c5ccccc5)nc4c3)c3c(N)nccn32)C1 | inactive | inactive |
| Cc1[nH]c2ccccc2c1C(c1cccs1)N1CCN(C)CC1 (stereo not drawn) | inactive | inactive |
| FC(F)(F)c1cnc(Sc2nnc(-c3ccncc3)o2)c(Cl)c1 | inactive | inactive |
| OC[C@H]1O[C@@H](n2c3ccc(Cl)cc3c3c(-c4cc5ccccc5o4)ncnc32)C(O)[C@H]1O (stereo partly drawn) | inactive | inactive |
| Brc1c(-c2ccc3c(c2)OCO3)nc2ncccn12 | inactive | inactive |
| O=C(Nc1ccc(F)c(-c2nc3cc(-c4ccccc4)cnc3[nH]2)c1)N1CCCC1 | inactive | inactive |
| COc1cccc(CC(=O)N2CCC(n3c(C)nc4ccc(F)cc43)CC2)c1 | inactive | inactive |
| CO[C@H]1/C=C\O[C@@]2(C)Oc3c(C)c(O)c4c(O)c(/c(=C/NN5CCN(C)CC5)c(O)c4c3C2=O)=N\C(=O)/C(C)=C\C=C/[C@H](C)[C@H](O)[C@@H](C)[C@@H](O)[C@@H](C)[C@H](OC(C)=O)[C@@H]1C | inactive | inactive |
| N#Cc1ccc(-c2ccc(OCC(N)=O)cc2)cc1 | inactive | inactive |
| NCCC(O)C(=O)N[C@@H]1C[C@H](N)[C@@H](OC2O[C@H](CN)[C@@H](O)[C@H](O)[C@H]2O)[C@H](O)C1OC1O[C@H](CO)[C@@H](O)[C@H](N)[C@H]1O (stereo partly drawn) | inactive | inactive |
| Nc1ncnc2c1c(-c1cnc3ccccc3c1)nn2CC1CCNCC1 | inactive | inactive |
| CCOc1ccccc1C(=O)Nc1cccc(-c2nc3ncccn3c2C)c1 | inactive | inactive |

| SMILES | inhibition [1] | inhibition [2] |
| --- | --- | --- |
| Cc1ccc2oc(-c3cc(NC(=O)Cc4ccccc4)ccc3Cl)nc2c1 | inactive | inactive |
| CO[C@@H](C(=O)N1Cc2[nH]nc(NC(=O)c3ccc(N4CCN(C)CC4)cc3)c2C1)c1ccccc1 | inactive | inactive |
| CS(=O)(=O)N1CCC(CCn2nc(Cc3cccc4ccccc34)c3c(N)ncnc32)CC1 | inactive | inactive |
| N#CCN(CCCCN1CCN(c2ccc(F)cc2)CC1)C(=O)OCc1ccccc1 | inactive | inactive |
| c1ccc(Oc2ccc(-c3cc(C4CCOCC4)[nH]n3)cc2)cc1 | inactive | inactive |
| O=C(Nc1c(O)cccc1-c1nc2c(C(=O)O)cccc2o1)c1cc(-c2ccccc2)on1 | inactive | inactive |
| Nc1nc2cc(-c3cncc(Oc4ccc(F)cc4)c3)ccc2[nH]1 | inactive | inactive |
| CCc1nn(C)c(C(=O)NCc2ccc(Oc3ccc(C)cc3)cc2)c1Cl | inactive | inactive |
| CC(C)(C)[C@H]1CC[C@H](CC2=C(O)C(=O)c3ccccc3C2=O)CC1 | inactive | inactive |
| CC1(C)Cc2c(c(N3CCOCC3)nc3snc(Br)c23)CO1 | inactive | inactive |
| CCc1ccccc1-n1c(C)cn2c3c(=O)n(C(C(=O)OC)C(C)C)c(=O)n(C)c3nc12 (stereo not drawn) | inactive | inactive |
| O=C(c1[nH]nc2c1CCCC2)N1CCN(Cc2ccc3c(c2)OCO3)CC1 | inactive | inactive |
| O=C(Nc1nc(-c2ccccn2)cs1)C1CC1c1ccccc1F (stereo not drawn) | inactive | inactive |
| Nc1ncnc2c1ncn2[C@@H]1O[C@H](COS(=O)(=O)NC(=O)c2ccccc2O)[C@@H](O)[C@H]1O | inactive | inactive |
| O=C(N[C@H](Cc1ccccc1)C(=O)Nc1ccccc1N1CCOCC1)c1cccs1 | inactive | inactive |
| CC[C@H](CO)NCCN[C@H](CC)CO | inactive | inactive |
| O=C(C1CCN(c2nnnn2-c2ccccc2)CC1)N1CCc2ccccc2C1 | inactive | inactive |
| COc1cccc(-n2nnnc2S(C)(=O)=O)c1 | inactive | inactive |
| Cc1ccc(S(=O)(=O)N2CCN(C(=O)c3cc(-c4ccccc4)n[nH]3)CC2)cc1 | inactive | inactive |
| OCc1ccc(-c2cncc(Nc3cccc(Cl)c3)c2)cc1 | inactive | inactive |
